This assay concerns Mcl-1. The experiment in a line: Mcl-1 protein levels by western blot in HeLa UNC5B cells. Particulars: 2 μg/mL Dox. Format: cell-based, Human. As for the experimental part:
FIG. 4. UNC5B triggers proteasomal degradation of Mcl-1. (A,B): UNC5B-induced apoptosis requires proteasome activity. Stable Hela cells inducible for UNC5B (HeLa UNC5B) were treated with doxycycline (Dox) at 2 μg/mL, in combination with the indicated doses of the proteasome inhibitors MG132 and bortezomib (BTZ). 18 hours after treatment, apoptosis was measured by DNA fragmentation (A) and caspase-3 activity (B) (n=3-4, **** p<0.0001, ordinary two-way ANOVA with Tukey's multiple comparisons test). Values are given as means±SEM Treatment with proteasome inhibitors was sufficient to strongly reduce apoptosis induction upon UNC5B over-expression. (C): UNC5B triggers Mcl-1 degradation. HeLa UNC5B cells were treated with 2 μg/mL of Dox, in combination with bortezomib (BTZ, 1 μM) and the pan-caspase inhibitor Q-VD-OPh (QVD, 10 µM) inhibitors. 16 hours after treatment, cells were lysed by scraping and sonication in SDS-containing buffer. Protein levels of Mcl-1, Bcl-2 and Bcl-XL, as well as of UNC5B and B-actin, used as housekeeping gene, were evaluated by western blot. […] UNC5B over-expression specifically promoted Mcl-1 protein decrease. […] (D): Mcl-1 degradation induced by UNC5B requires COMMD2/CRL3 complex. HeLa UNC5B cells were transfected with scramble (siCTRL), COMMD2 (siCOMMD2) or RBX1 (siRBX1) siRNAs. […] Protein levels of Mcl-1, UNC5B and Ku80, used as housekeeping protein, were evaluated by western blot. […] Stable HeLa UNC5B cells, constitutively expressing Mcl-1 or empty vector, were treated with doxycycline and apoptosis was evaluated 18 hours later by DNA fragmentation (n=3, ^nsp>0.05, ordinary two-way ANOVA with Sidak's multiple comparisons test). […] Stable HeLa UNC5B cells, constitutively expressing Mcl-1, Bcl-2 or Bcl-XL were treated with Dox and protein levels were evaluated as described in (C). […] 18 hours later, protein levels of Mcl-1, UNC5B and β-actin, used as housekeeping gene, were evaluated by western blot. […] Cells were harvested at the indicated times after CHX treatment, and protein levels were assessed by western blot. […]

With `CC(C)C[C@H](NC(=O)[C@H](Cc1ccccc1)NC(=O)c1cnccn1)B(O)O` [bortezomib], the “degradation of ectopically-expressed Mcl-1” value (HeLa UNC5B cells constitutively expressing Mcl-1, 18 hours) is reported as “restrained the degradation”. For the same molecule, the “Mcl-1 protein levels / degradation triggered by UNC5B” value (endogenous Mcl-1, BTZ 1 μM, QVD 10 µM, 16 hours) is “increased but similar Mcl-1 protein levels in both untreated and doxycycline-treated cells”.

The record behind these values is patent US20250215071A1, “Novel Mcl-1 inhibitor and combination of Mcl-1 and a BH3 mimetic, such as a Bcl-2 inhibitor” (NETRIS PHARMA, priority 2022, published 2025).
